The METLIN SMRT retention time set (Domingo-Almenara et al. 2019)

Experiment: gradient 5% acetonitrile 3 min, to 50% in 2 min, to 85% in 15 min, held 3 min, 100 µL/min
Settings: column: Zorbax Extend-C18 2.1 x 50 mm; eluents: water / acetonitrile, 0.1% formic acid
Summary of the method: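 Standards, all pure, were combined into mixtures of ~100 molecules and run at 100 μL/min on a Zorbax Extend-C18 column (2.1 × 50 mm, 1.8 μm) with water and acetonitrile, each containing 0.1% formic acid. A coupled quadrupole time-of-flight mass spectrometer operated in positive and negative ionization mode. Retention time values come from computationally picked adduct peaks, each inspected manually.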

RP-LC retention time	Structure (SMILES)
860 s	COc1cccc(CNC(=O)N2CCCC(C)(C(=O)NCc3ccccc3C)C2)c1 (stereo not drawn)
653 s	COc1ccc(CC(=O)NCC(=O)Nc2nc3ccccc3[nH]2)c(Cl)c1
779 s	COc1ccc(C(C)NC(=O)C2=C3CCCN3c3ccccc3S2(=O)=O)cc1OC (stereo not drawn)
891 s	COc1ccc(C2CC(=O)N(c3cc(C)cc(C)c3)C(=O)C2)cc1OC
796 s	CN1C(=O)CO[C@@H](C(=O)N2CCN(c3ccccc3)CC2)[C@@H]1c1ccccc1
804 s	CCc1cccc(N2C(=O)CN(S(C)(=O)=O)CC2(C)C(=O)NCc2ccccc2)c1 (stereo not drawn)
713 s	CCOC(Cn1c(-c2ccc(OC)cc2)nc2ccccc21)OCC
863 s	Cc1cc(=O)n(CC(=O)NCc2ccc(F)c(Cl)c2)c(N)n1
611 s	CC(C)n1cnnc1CC1CCN(C(=O)C2CCC2)CC1
802 s	Cc1cccc(S(=O)(=O)NCc2c(-c3ccccc3)nc3sc(C)nn23)c1
795 s	CC(=O)c1ccc(NC(=O)Cc2csc3nc(-c4ccc(C)c(C)c4)cn23)cc1
757 s	CC1CCc2[nH]nc(C(=O)N3CCCCC3)c2C1 (stereo not drawn)
621 s	Cc1ccc(C)c(-c2cc(C(=O)N3CCN(C)CC3)[nH]n2)c1
835 s	CCn1ccc2sc(C)c(C(=O)NCc3cc(F)ccc3F)c2c1=O
1290 s	Clc1ccc(Sc2c(-c3ccc(Br)cc3)nc3ccccn23)cc1
803 s	O=c1n(CC2CC2)nc2n1CCN(S(=O)(=O)c1ccccc1C(F)(F)F)C2
650 s	CCC(C)NC(=O)NCCn1c(-c2ccc(C)cc2)nc2cccnc21 (stereo not drawn)
866 s	O=C(Nc1nnc(-c2cc(Cl)sc2Cl)o1)c1ccc([N+](=O)[O-])o1
963 s	CCOCCOC(=O)c1cn(-c2ccc(OC)cc2)c(=O)c2ccccc12
723 s	COc1cccc(CNC(=O)Nc2cc3c(cc2N2CCOCC2)n(C)c(=O)n3C)c1
833 s	CCOc1ccccc1NC(=O)N1CCCC1c1cc(CC)no1 (stereo not drawn)
582 s	COc1cccc(-c2nnc3sc(CN4CCc5ccccc5C4)cn23)c1
732 s	Cn1cc(S(=O)(=O)N2CCC(C(=O)N3CCCCCC3)CC2)cc1C(=O)N1CCCC1

RP-LC retention time	Structure (SMILES)
890 s	CC1CCN(C(=O)CSCC(=O)Nc2nc(-c3ccc4c(c3)OCO4)cs2)CC1
1170 s	CCCn1cc(C(=O)Nc2cc(OC)cc(OC)c2)c(=O)c2ccc(C)nc21
962 s	CCCn1cc(CCNS(=O)(=O)c2c(C)cc(C)cc2C)c2cccnc21
757 s	COCCNc1c(-c2ccc(F)cc2)nc2sc(C(=O)N3CCCC3)c(C)n12
723 s	O=C(NCc1ccccc1)N1CCN(Cc2nc3ccc(Cl)cc3o2)CC1
597 s	CCc1noc2nc(C)nc(N3CCCC(C(=O)NCCN4CCCC4)C3)c12 (stereo not drawn)
1190 s	CCn1c(=O)c(C)nc2cc(-c3noc(-c4cccc(C)c4)n3)ccc21
635 s	O=C(NC1CCCCCC1)C1CCN(c2cncnc2N2CCOCC2)CC1
758 s	COc1cccc2sc(N(C)CC(=O)N3CCn4c3nc3ccccc34)nc12
623 s	Cn1c(=O)sc2cc(S(=O)(=O)N3CCC(C(=O)NCCN4CCCCCC4)CC3)ccc21
724 s	O=C(CN1C(=O)C2CCCCN2c2ccc(C(=O)N3CCCC3)cc21)NCc1ccco1 (stereo not drawn)
725 s	COc1ccc(N2CC(C(=O)NCCc3c[nH]c4ccccc34)CC2=O)cc1 (stereo not drawn)
737 s	Cc1ccc(Cn2c(=O)n(CCNC(=O)c3cnccn3)c3ncccc32)cc1
832 s	CCn1c(=O)c(N2CCCC(C(=O)N3CCN(C(=O)c4ccco4)CC3)C2)nc2ccccc21 (stereo not drawn)
733 s	CCC(C)C(=O)N1CCN(c2ncccc2-c2nnc(C3CC3)o2)CC1 (stereo not drawn)
981 s	N#Cc1cc(-c2ccccc2)[nH]c1-c1nccc2ccccc12
804 s	Cc1cc(C2CCCN2C(=O)Cc2ccccc2Cl)no1 (stereo not drawn)
631 s	Cc1ccc2nc(C)cc(C(=O)NCC(C)C)c2c1
567 s	O=C(NC1CCN(c2nnc3ccc(Cl)cn23)CC1)c1cccnc1
1190 s	Cc1ccc(-n2nc(C)c3sc(N4CCCC(C(=O)NC(C)c5ccccc5)C4)nc32)cc1 (stereo not drawn)
573 s	CC(=O)Nc1nc2c(s1)CN(CC(=O)Nc1ccc(F)c(Cl)c1)CC2
878 s	Cc1cccc(NC(=O)/C=C/c2ccc([N+](=O)[O-])cc2)c1
1090 s	CCn1ncc(Br)c1C(=O)Nc1ccccc1Cl

RP-LC retention time	Structure (SMILES)
722 s	Cc1nc2ccn(Cc3ccco3)c(=O)c2cc1C(=O)NCc1ccc2c(c1)OCO2
1170 s	Cc1ccc(-c2noc(Cn3c(=O)n(CCc4ccccc4)c(=O)c4sccc43)n2)cc1
885 s	CCOc1ccc(N2C(=O)C3N=NN(Cc4nc(-c5ccccc5)no4)C3C2=O)cc1 (stereo not drawn)
847 s	CCc1ccc(NC(=O)C2CC(=O)N(c3n[nH]c4cccc(F)c34)C2)cc1 (stereo not drawn)
610 s	CCN(C(=O)c1nc(C)n(C2CCN(S(C)(=O)=O)CC2)c1C)c1ccccc1
733 s	CCCNc1cc(N2CCC(CCC(=O)Nc3ccc(C)cc3C)CC2)ncn1
631 s	Cc1ccc(CNC(=O)C2CCN(c3cncnc3N3CCOCC3)CC2)cc1
544 s	COc1cccc(N2CC(NC(=O)Nc3cccnc3)CC2=O)c1 (stereo not drawn)
725 s	O=C(c1ccccc1C(F)(F)F)N1CCN(S(=O)(=O)C2CC2)CC1
1310 s	CCn1cccc1-c1nc(C)c(C(=O)Nc2ccc(C(C)C)cc2)s1
648 s	CCN(Cc1cn(CC)nc1C)C(=O)CC1=C2CCCCC2N(C)C1=O (stereo not drawn)
580 s	CNCCCNCc1ccc(-c2ccc(F)c(Cl)c2)o1
675 s	O=C(CN1CCN(C(=O)N2CCCCC2)CC1)Nc1cc(Cl)ccc1Cl
1060 s	COc1ccc(NS(=O)(=O)c2cccc(-c3nc(-c4ccccc4)no3)c2)cc1OC
970 s	CCc1cccc(NC(=O)N2CCCC2c2nc(-c3ccccc3OC)no2)c1 (stereo not drawn)
819 s	CCCCN(CC)c1nc(-c2ccccc2F)nc2ccccc12
586 s	CN1CCCN(C(=O)c2ccc(-c3ccsc3)nc2)CC1
1020 s	O=C(CSc1nnc(-c2cccc(Br)c2)o1)c1ccc([N+](=O)[O-])cc1
853 s	CCCS(=O)(=O)c1nc2ccc(NS(=O)(=O)c3ccc(OC)c(OC)c3)cc2s1
687 s	Cc1sc2ccn(C)c(=O)c2c1C(=O)NCCN1CCc2ccccc2C1
799 s	CC(C)OC(=O)Cn1c(C2CC(=O)N(Cc3ccccc3)C2)nc2ccccc21 (stereo not drawn)
623 s	CCN1C(=O)c2cccnc2Sc2cc(CNC(=O)c3ccncc3)ccc21
